Assay results published in patent publication US9695129B2, “Parasiticidal compositions comprising benzimidazole derivatives, methods and uses thereof” (MERIAL INC., priority 2012, dated 2017).

Tested on: adult F. hepatica
Assay: In vitro test on adult F. hepatica (viability scale, effective concentration)
Design: species or system Fasciola hepatica
Details: Fasciola hepatica, 72 h, read-out: Effective in vitro concentration
Procedure: Representative compounds of formula (I), formula (II), and formula (III) were tested in vitro against F. hepatica as follows. Adult F. hepatica (fluke) were collected from infected bovine livers obtained from a local abattoir (Basel, Switzerland). The worms were quickly washed with 0.9% (w/v) NaCl and placed in 6 or 12-well plates (Costar). Culture medium in each well contained RPMI 1640 (Gibco) at 37° C., which was supplemented with antibiotics (50 μg/ml streptomycin and 50 IU/ml penicillin; Gibco) and 80 μg/ml of a haemin solution. The haemin solution was prepared as follows: 5 mg haemin was dissolved in 1 ml of 0.1M aqueous solution of NaOH, and 3.95 ml of PBS (pH=7.4) and 0.05 ml of 1M HCl were added to adjust the pH to 7.1-7.4 (Keiser and Morson, 2008). Cultures were kept at 37° C. in an atmosphere of 5% CO2. To monitor the temporal effects of test compounds in vitro, 3 flukes were incubated for 72 h in the presence of 50 or 100 μg/ml of each test compound. At 24, 48, and 72 h, worms were examined using a dissecting microscope. For the adult worms, a viability scale ranging from 4 (normal movements) to 1 (death; no movement observed for two min using a microscope) was used.
(§1) Table 1 lists representative compounds of formula (I) of the present invention and their effective in vitro concentrations against F. hepatica. All compounds were tested in vitro on the adult stage of F. hepatica as described above. Each data point refers to at least two independent experiments. For Table 1, R2 is H, R4 is Cl and R5 is H.
as §1, with “2” for “1”, “(II)” for “(I)”, “2 compounds, the 2-position of the benzimidazole ring” for “1, R2”, “methylthio, R6” for “H, R4”, “H” for “Cl”, “R9” for “R5”
as §1, with “3” for “1”, “(III)” for “(I)”, “3, the 2-position of the benzimidazole ring” for “1, R2”, “trifluoromethylthio, R10” for “H, R4”, “H” for “Cl”, “R13” for “R5”

Compound	minimal effective concentration [µg/mL]
Fc1ccc(Oc2cc3[nH]c(C(F)(F)C(F)(F)C(F)(F)F)nc3cc2Cl)c(F)c1 [Compound 279, 5-chloro-6-(2,4-difluorophenoxy)-2-(heptafluoropropyl)-1H-1,3-benzodiazole]	< 5

Same assay, conditions: Fasciola hepatica; Table 1, formula (I); adult flukes incubated up to 72 h; at least two independent experiments; read-out: Effective in vitro concentration

Compound	minimal effective concentration [µg/mL]
FC(F)(F)c1nc2cc(Cl)c(-c3ccc(Cl)cc3C(F)(F)F)cc2[nH]1 [Compound 304, 5-chloro-6-[4-chloro-2-(trifluoromethyl)phenyl]-2-(trifluoromethyl)-1H-1,3-benzodiazole]	20
FC(F)(F)c1ccc(-c2cc3[nH]c(C(F)(F)C(F)(F)F)nc3cc2Cl)c(Cl)c1 [Compound 308, 5-chloro-6-[2-chloro-4-(trifluoromethyl)phenyl]-2-(pentafluoroethyl)-1H-1,3-benzodiazole]	< 10
FC(F)(F)C(F)(F)c1nc2cc(Cl)c(Oc3ccc(Cl)cc3Cl)cc2[nH]1 [Compound 276, 5-chloro-6-(2,4-dichlorophenoxy)-2-(pentafluoroethyl)-1H-1,3-benzodiazole]	< 5
Fc1ccc(Oc2cc3[nH]c(C(F)(F)C(F)(F)F)nc3cc2Cl)c(F)c1 [Compound 278, 5-chloro-6-(2,4-difluorophenoxy)-2-(pentafluoroethyl)-1H-1,3-benzodiazole]	< 5
FC(F)(F)c1cc(Cl)ccc1-c1cc2[nH]c(C(F)(F)C(F)(F)F)nc2cc1Cl [Compound 305, 5-chloro-6-[4-chloro-2-(trifluoromethyl)phenyl]-2-(pentafluoroethyl)-1H-1,3-benzodiazole]	20
FC(F)(F)c1cc(Cl)ccc1-c1cc2[nH]c(C(F)(F)C(F)(F)C(F)(F)F)nc2cc1Cl [Compound 306, 5-chloro-6-[4-chloro-2-(trifluoromethyl)phenyl]-2-(heptafluoropropyl)-1H-1,3-benzodiazole]	20
Fc1ccc(-c2cc3[nH]c(C(F)(F)C(F)(F)F)nc3cc2Cl)cc1 [Compound 281, 5-chloro-6-(4-fluorophenyl)-2-(pentafluoroethyl)-1H-1,3-benzodiazole]	5
FC(F)(F)c1ccc(-c2cc3[nH]c(C(F)(F)C(F)(F)C(F)(F)F)nc3cc2Cl)c(Cl)c1 [Compound 309, 5-chloro-6-[2-chloro-4-(trifluoromethyl)phenyl]-2-(heptafluoropropyl)-1H-1,3-benzodiazole]	20
FC(F)(F)c1nc2cc(Cl)c(Oc3ccc(Cl)cc3Cl)cc2[nH]1 [Compound 275, 5-chloro-6-(2,4-dichlorophenoxy)-2-(trifluoromethyl)-1H-1,3-benzodiazole]	10
FC(F)(F)C(F)(F)c1nc2cc(Cl)c(-c3cccc(Cl)c3Cl)cc2[nH]1 [Compound 262-100, 5-chloro-6-(2,3-dichlorophenyl)-2-(pentafluoroethyl)-1H-1,3-benzodiazole]	10
FC(F)(F)c1nc2cc(Cl)c(-c3ccc(Cl)c(Cl)c3)cc2[nH]1 [Compound 258, 6-chloro-5-(3,4-dichlorophenyl)-2-trifluoromethylbenzimidazole]	5
FC(F)(F)c1nc2cc(Cl)c(-c3ccc(Cl)cc3Cl)cc2[nH]1 [Compound 260, 6-chloro-5-(2,4-dichlorophenyl)-2-trifluoromethylbenzimidazole]	5

Same assay, conditions: Fasciola hepatica; Table 2, formula (II); adult flukes incubated up to 72 h; at least two independent experiments; read-out: Effective in vitro concentration

Compound	minimal effective concentration [µg/mL]
CSc1nc2cc(Cl)c(Oc3ccccc3Br)cc2[nH]1 [Compound 014, 6-chloro-5-(2-bromophenoxy)-2-methylthiobenzimidazole]	50

Same assay, conditions: Fasciola hepatica; Table 3, formula (III); adult flukes incubated up to 72 h; at least two independent experiments; read-out: Effective in vitro concentration

Compound	minimal effective concentration [µg/mL]
FC(F)(F)Sc1nc2cc(Cl)c(Oc3cccc(Cl)c3Cl)cc2[nH]1 [Compound 049, 6-chloro-5-(2,3-dichlorophenoxy)-2-trifluoromethylthiobenzimidazole]	10

Same assay, conditions: Table 3, formula (III); adult flukes incubated up to 72 h; at least two independent experiments

Compound	Effective in vitro concentration [µg/mL]
6-chloro-5-(2-butyl)-cyclopropyl-2-trifluoromethylthiobenzimidazole [Compound 108]	10
